From patent publication US9180160B2, “Complement inhibitors for treatment of injury from intracerebral hemorrhage” (The Trustees of the University of Pennsylvania, priority 2008, dated 2015)
Entries after “also recorded” stand apart in the source; their conditions may differ.

Experiments:
[1] = tested on: C57BL/6J mice subjected to ICH; assay: 28-point neurological function score after ICH (autologous blood infusion); assay type: in vivo
Experimental: (§1) Animal Preparation and Intracerebral Infusion. Adult male C57BL/6J mice weighing 23-30 g were used. Mice were randomized to receive intraperitoneal injection of either C3aRA (1 mg/kg) (SB290157, Calbiochem, Darmstadt, Germany) diluted in PBS and DMSO (1.16% v/v), or an equal volume of vehicle (PBS and DMSO, 1.16% DMSO v/v) either 45 minutes prior to ICH induction or 6 and 12 hours after induction of ICH, followed in both cohorts by twice daily doses for 72 hours. […] Sham animals were given PBS and DMSO (1.16% v/v) in the same manner.
Mice were anesthetized with a single intraperitoneal dose of ketamine (90 mg/kg) and xylazine (5 mg/kg). Next, the mice were placed in a stereotactic frame (ASI Instruments, Inc., Warren, Mich., USA) and subjected to ICH using autologous blood infusion as previously described (Rynkowski M A et al, 2008, Nat Protoc 3: 122-128), Briefly, a 1-mm burr hole was drilled 2.3 mm lateral to the midline and 0.2 mm anterior to the bregma. Thirty μL of autologous whole blood were drawn from the tail artery into a capillary tube. A 30-gauge needle was then advanced stereotactically through the burr hole into the right striatum (coordinates: 0.2 mm anterior, 2.3 mm lateral to the bregma, 3.5 mm ventral). Using a microinfusion pump (KDS220, KD Scientific Inc., Holliston, Mass., USA), 5 μL was delivered at a rate of 1.5 μL per minute. After a 7-minute period, an additional 25 μL was delivered at a constant rate of 1.5 μL per minute. […]
Neurofunction and behavioral testing. Sensorimotor function was evaluated by means of the 28-point neurological function score, corner test and forelimb placing tests, which were performed pre-operatively and at 6, 24, 48 and 72 hour post-injury. Navigational memory was evaluated with the means of a Morris water-maze (MWM) test pre-operatively and at 72 hours post ICH. […]
Neurological function. Acute neurological deficits were assessed using a 28-point scoring system including body symmetry, gait, climbing, circling behavior, front limb symmetry, compulsory circling and whisker response. […]

[2] = tested on: C57BL/6J mice subjected to ICH; assay: Flow cytometric analysis of granulocyte infiltration and microglial activation after ICH; assay type: in vivo; details: then twice daily, mean±SEM
Experimental: as §1
Mice were anesthetized with a single intraperitoneal dose of ketamine (90 mg/kg) and xylazine (5 mg/kg). Next, the mice were placed in a stereotactic frame (ASI Instruments, Inc., Warren, Mich., USA) and subjected to ICH using autologous blood infusion as previously described (Rynkowski M A et al, 2008, Nat Protoc 3: 122-128), Briefly, a 1-mm burr hole was drilled 2.3 mm lateral to the midline and 0.2 mm anterior to the bregma. Thirty μL of autologous whole blood were drawn from the tail artery into a capillary tube. A 30-gauge needle was then advanced stereotactically through the burr hole into the right striatum (coordinates: 0.2 mm anterior, 2.3 mm lateral to the bregma, 3.5 mm ventral). Using a microinfusion pump (KDS220, KD Scientific Inc., Holliston, Mass., USA), 5 μL was delivered at a rate of 1.5 μL per minute. After a 7-minute period, an additional 25 μL was delivered at a constant rate of 1.5 μL per minute. After a period of 10 minutes, the needle was slowly removed, the burr hole was occluded with bone wax and the skin incision was closed with Nexaband® (Abbott Laboratories, North Chicago, Ill.). Sham animals received only needle insertion. […]
Preparation of brains. Both cerebral hemispheres were analyzed for inflammatory cells using flow cytometry. […]
Flow cytometric analysis. […] Flow cytometric analysis was carried out using a FACSCalibur (BD Biosciences, Franklin Lakes, N.J., USA), and the data were analyzed using FlowJo software (Tree Star, Ashland, Oreg., USA). […]

[3] = 1 mg/kg i.p. first at 6 h and 12 h after ICH, then twice daily for 72 hours, versus vehicle
[4] = 1 mg/kg i.p. 45 minutes prior to ICH, 72 hours after ICH

Compound	28-point neurological score ([1]; 1 mg/kg i.p. 45 minutes prior to ICH, then twice daily, 72 hours after ICH)	28-point neurological score [1, 3]	activated microglia, hemorrhagic/non-hemorrhagic hemisphere ratio [2, 4]	granulocytes, hemorrhagic/non-hemorrhagic hemisphere ratio [2, 4]	granulocyte infiltration, hemorrhagic/non-hemorrhagic ratio ([2]; 1 mg/kg i.p. first at 6 h and 12 h after ICH, 3 days after ICH)
NC(N)=NCCC[C@H](NC(=O)COCC(c1ccccc1)c1ccccc1)C(=O)O [C3aRA]	no significant deficits compared with sham animals	significant improvement at 24, 48, and 72 hours; also recorded: significant improvement at 24, 48 and 72 hours	3.67±0.45	3.21±0.52	–
Acetyl-Phe-[Orn-Pro-D-cyclohexylalanine-Trp-Arg] [C5aRA]	–	significant improvement at 24, 48 and 72 hours	–	–	1.7793±0.36
